Measured values as given in patent publication US11801232B2, “Targeting of ARID1A-deficient cancers by inhibiting de novo pyrimidine synthesis pathway” (YALE UNIVERSITY, priority 2019, dated 2023).

System: γ-H2AX
Experiment: Immunoblot and immunofluorescence of γ-H2AX in ES2 cells
Type: cell-based, human
Details: ARID1A-knockdown ES2 cells; teriflunomide 15 μM, AZD6738 1.5 μM, VX-970 0.075 μM; 24-72 h
Procedure: Immunoblot Analysis and Co-Immunoprecipitation Assay. For immunoblotting experiments, cells were lysed in BC200 lysis buffer [20 mM Tris-HCl (pH 7.5), 200 mM NaCl, 1 mM EDTA, 0.2% Nonidet P-40 (NP-40), freshly added complete protease inhibitor cocktail (from Roche), and PhosSTOP phosphatase inhibitor (from Roche)] or in boiling SDS lysis buffer [1% SDS and 10 mM Tris-CI (pH 7.5)], as previously described^21. Protein concentrations were quantified using a modified Lowry assay, and equal protein amounts were loaded onto a 10% SDS-PAGE gel and separated by gel electrophoresis, followed by transfer to a nitrocellulose membrane. The nitrocellulose membrane was stained with Ponceau S to confirm equal protein loading and then blocked in 2% BSA in Tris-buffered saline with 0.1% Tween-20 (tris buffered saline with tween, or TBST). Primary antibody incubation was done for 2 h at room temperature or, for phospho-specific antibodies, overnight at 4° C. An HRP-conjugated secondary antibody was used, followed by detection using enhanced chemiluminescence substrate (from Pierce). Autoradiograph images were scanned and saved as unmodified TIFF images, and densitometry analysis was done with ImageJ (from NIH) software.
Immunofluorescence. […] Images of cells were acquired using a BZ-X710 fluorescence microscope (from KEYENCE) and analyzed using ImageJ (from NIH).

## C[C@@H]1COCCN1c1cc(C2([S@](C)(=N)=O)CC2)nc(-c2cc[nH]c3nccc2-3)n1 [AZD6738]
  γ-H2AX protein levels: increased
